Among the data in ChEMBL document CHEMBL1138084, “Synthesis and SAR of novel histamine H3 receptor antagonists” (Bioorg Med Chem Lett, 2006) are Ki, IC50 and bioavailability values, retold here.

As a reminder, the bioavailability is dose-corrected exposure relative to a reference, in per cent. A high value points to good availability.

Series [1] deals with Histamine H3 receptor (Homo sapiens, UniProt Q9Y5N1). The series is described as follows: Displacement of [3H]N-alpha-methylhistamine from human cloned H3 receptor. (In a radioligand displacement assay an active substance lowers the binding of a labelled ligand.)
Series [2] deals with Histamine H3 receptor (Rattus norvegicus, UniProt Q9QYN8). Briefly: Displacement of [3H]N-alpha-methylhistamine from rat cloned H3 receptor.
A short description of series [3]: Inhibition of [3H]R-alpha-methylhistamine binding to brain of po dosed rat. Format: functional, organism-based.
Series [4] in a line: Oral bioavailability in rat at 10 mg/kg. As to conditions: in vivo. Format: ADME, organism-based.

Sequence of Histamine H3 receptor (Homo sapiens, UniProt Q9Y5N1) (Q9Y5N1 whole entry): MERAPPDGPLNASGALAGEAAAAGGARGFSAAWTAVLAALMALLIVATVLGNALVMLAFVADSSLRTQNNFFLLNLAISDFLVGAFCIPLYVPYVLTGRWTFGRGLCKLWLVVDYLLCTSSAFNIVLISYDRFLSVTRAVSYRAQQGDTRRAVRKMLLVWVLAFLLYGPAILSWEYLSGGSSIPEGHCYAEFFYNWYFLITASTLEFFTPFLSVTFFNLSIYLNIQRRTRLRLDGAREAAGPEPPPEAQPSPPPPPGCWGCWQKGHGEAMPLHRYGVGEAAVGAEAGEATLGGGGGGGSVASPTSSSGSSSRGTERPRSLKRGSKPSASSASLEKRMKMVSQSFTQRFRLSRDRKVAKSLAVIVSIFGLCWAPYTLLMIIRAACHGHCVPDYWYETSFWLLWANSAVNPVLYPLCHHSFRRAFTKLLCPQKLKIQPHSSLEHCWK
Sequence of Histamine H3 receptor (Rattus norvegicus, UniProt Q9QYN8) (Q9QYN8 whole entry): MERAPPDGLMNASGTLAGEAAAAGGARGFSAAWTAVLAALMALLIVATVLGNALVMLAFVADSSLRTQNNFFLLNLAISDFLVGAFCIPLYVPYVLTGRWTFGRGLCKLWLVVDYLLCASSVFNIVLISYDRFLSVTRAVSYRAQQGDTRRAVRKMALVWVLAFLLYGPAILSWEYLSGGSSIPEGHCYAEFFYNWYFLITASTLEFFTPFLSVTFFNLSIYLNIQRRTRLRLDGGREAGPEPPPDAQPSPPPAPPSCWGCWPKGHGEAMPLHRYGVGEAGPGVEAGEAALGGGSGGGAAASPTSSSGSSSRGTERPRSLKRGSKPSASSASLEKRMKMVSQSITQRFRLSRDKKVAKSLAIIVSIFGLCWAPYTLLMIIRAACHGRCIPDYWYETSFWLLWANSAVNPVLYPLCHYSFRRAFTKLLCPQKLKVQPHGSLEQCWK

Turning to `CCN1CCCc2cc(OCCCN3CCCCC3)ccc21`, in series [1] (read-out: Ki), the Ki is 0.041 µM.

Turning to `CCN1CCCc2cc(OCCCN3CCCCC3)ccc2C1`, the Ki in series [2] is 0.00056 µM; in series [1] (read-out: Ki), 0.00034 µM.

As for `c1cc2c(c(OCCCN3CCCCC3)c1)CNCC2`, the Ki in series [1] (read-out: Ki) is 0.154 µM. With `O=S(=O)(c1ccccc1)N1CCc2ccc(OCCCN3CCCCC3)cc2C1`, the Ki in series [1] (read-out: Ki) was determined as 0.00053 µM. Still for that read-out and setting: under `O=C(c1cccs1)N1CCc2cccc(OCCCN3CCCCC3)c2C1` stands greater than 0.3 µM. As for `c1cc2c(cc1OCCCN1CCCCC1)CCNC2`, the Ki in series [1] was 2.4. Consider `CCN1CCc2cccc(OCCCN3CCCCC3)c2C1`, for which, in series [1] (read-out: Ki), the Ki turned out to be 0.0952 µM. On the same count and under the same terms, under `CCN1CCCc2cccc(OCCCN3CCCCC3)c21` stands greater than 0.3 µM. Consider `O=C(c1cccs1)N1CCc2ccc(OCCCN3CCCCC3)cc2C1`, for which, in series [1] (read-out: Ki), the Ki amounted to 0.0081 µM. As for `c1cc2c(c(OCCCN3CCCCC3)c1)CCNC2`, in series [1] (read-out: Ki), the Ki is greater than 0.3 µM.

As for `O=S(=O)(c1ccccc1)N1CCCc2cc(OCCCN3CCCCC3)ccc21`, the Ki in series [1] (read-out: Ki) is 0.018 µM.

Regarding `c1cc2c(cc1OCCCN1CCCCC1)CCN(CC1CCCCC1)C2`, the Ki in series [1] (read-out: Ki) worked out at 0.00101 µM.

`CC(C)N1CCc2ccc(OCCCN3CCCCC3)cc2C1`: the Ki in series [2] was found to be 0.00089 µM; in series [1] (read-out: Ki) it was 0.00017 µM. For `c1cc2c(cc1OCCCN1CCCCC1)CN(CC1CCCCC1)CC2`, in that order: 0.00046 µM and 0.00035 µM. In the case of `CC(=O)N1CCc2ccc(OCCCN3CCCCC3)cc2CC1`, the Ki in series [2] turned out to be 0.0488 µM; in series [1] (read-out: Ki), 0.0116 µM. With `O=S(=O)(c1ccccc1)N1CCc2c(cccc2OCCCN2CCCCC2)C1`, in series [1] (read-out: Ki), the Ki was greater than 0.3 µM. Same read-out and setting: under `O=S(=O)(c1ccccc1)N1CCc2cc(OCCCN3CCCCC3)ccc2C1` stands 0.0074 µM. The same measure, in the same setting: under `c1cc2c(cc1OCCCN1CCCCC1)CCCN2` stands 0.054 µM; under `c1cc2c(c(OCCCN3CCCCC3)c1)NCCC2`, greater than 0.3 µM. Still for that read-out and setting: for `O=C(c1cccs1)N1CCCc2cccc(OCCCN3CCCCC3)c21` the value was greater than 0.3 µM; for `c1cc2c(c(OCCCN3CCCCC3)c1)CCN(CC1CCCCC1)C2`, 0.0154 µM. With `O=S(=O)(c1ccccc1)N1CCCc2ccc(OCCCN3CCCCC3)cc21`, the Ki in series [1] (read-out: Ki) stood at 0.0073 µM. Take `CCN1CCc2ccc(OCCCN3CCCCC3)cc2CC1`: the results for the Ki in series [2] and in series [1] (read-out: Ki) were 0.0011 µM and 0.00026 µM, respectively.

Regarding `c1cc2c(cc1OCCCN1CCCCC1)CNCC2`, the Ki in series [1] (read-out: Ki) turned out to be 0.0006 µM. Consider `CC(C)NC(=O)N1CCCc2cc(OCCCN3CCCCC3)ccc2C1`, for which the Ki was determined as 0.0325 µM in series [2] and 0.0171 µM in series [1] (read-out: Ki). On to `c1cc2c(c(OCCCN3CCCCC3)c1)CCCN2`, for which the Ki in series [1] (read-out: Ki) is greater than 0.3 µM.

Consider `CS(=O)(=O)N1CCCc2cc(OCCCN3CCCCC3)ccc2C1`, for which the Ki in series [2] is 0.0701 µM; in series [1] (read-out: Ki), 0.0029 µM. For the compound `CCN1CCc2cc(OCCCN3CCCCC3)ccc2C1`, the Ki in series [1] (read-out: Ki) is 0.00054 µM.

As for `CC(C)N1CCCc2cc(OCCCN3CCCCC3)ccc2C1`, the IC50 in series [3] is 5.3 mg/kg. In series [4], this compound displayed a bioavailability of no less than 100%. Also, the Ki amounted to 0.00129 µM in series [2] and 0.0002 µM in series [1] (read-out: Ki). Turning to `c1cc2c(c(OCCCN3CCCCC3)c1)CN(CC1CCCCC1)CC2`, the Ki in series [1] (read-out: Ki) amounted to 0.059 µM. In the case of `CCN1CCCc2ccc(OCCCN3CCCCC3)cc21`, the Ki in series [1] (read-out: Ki) came out at 0.156 µM. With `CCN1CCCc2c(OCCCN3CCCCC3)cccc21`, in series [1] (read-out: Ki), the Ki is greater than 0.3 µM.

For `CS(=O)(=O)N1CCc2ccc(OCCCN3CCCCC3)cc2CC1`, the Ki in series [2] was found to be 0.0381 µM; in series [1] (read-out: Ki), 0.0121 µM. For `c1cc2c(cc1OCCCN1CCCCC1)CCN(CC1CCCCC1)CC2`, in that order: 0.00097 µM and 0.00053 µM. On to `CC(C)N1CCc2ccc(OCCCN3CCCCC3)cc2CC1`, for which the Ki in series [2] stood at 0.0016 µM; in series [1] (read-out: Ki) it was 0.00072 µM.

Turning to `O=C(c1cccs1)N1CCc2cc(OCCCN3CCCCC3)ccc2C1`, the Ki in series [1] (read-out: Ki) stood at 0.0021 µM.

For `CC(=O)N1CCc2ccc(OCCCN3CCCCC3)cc2C1`, the Ki in series [2] is 0.0367 µM; in series [1] (read-out: Ki) it was 0.0194 µM. Turning to `CC(C)NC(=O)N1CCc2ccc(OCCCN3CCCCC3)cc2C1`, the Ki amounted to 0.0396 µM in series [2] and 0.0049 µM in series [1] (read-out: Ki). For `c1ccc(CN2CCCc3cc(OCCCN4CCCCC4)ccc3C2)cc1`, in that order: 0.0008 µM and 0.0002 µM.

With `CC(C)NC(=O)N1CCc2ccc(OCCCN3CCCCC3)cc2CC1`, in series [1] (read-out: Ki), the Ki was determined as 0.0423 µM.

Take `O=S(=O)(c1ccccc1)N1CCCc2cccc(OCCCN3CCCCC3)c21`: the Ki in series [1] (read-out: Ki) was greater than 0.3 µM.

For the compound `CCN1CCc2c(cccc2OCCCN2CCCCC2)C1`, in series [1] (read-out: Ki), the Ki was 0.0842 µM. For the compound `O=S(=O)(c1ccccc1)N1CCc2cccc(OCCCN3CCCCC3)c2C1`, the Ki in series [1] (read-out: Ki) is greater than 0.3 µM.

With `O=C(c1cccs1)N1CCc2c(cccc2OCCCN2CCCCC2)C1`, the Ki in series [1] (read-out: Ki) was greater than 0.3 µM. Still for that read-out and setting: for `c1cc2c(cc1OCCCN1CCCCC1)NCCC2` the value was 0.129 µM. The same measure, in the same setting: under `c1cc2c(c(OCCCN3CCCCC3)c1)N(CC1CCCCC1)CCC2` stands greater than 0.3 µM.

In the case of `CS(=O)(=O)N1CCc2ccc(OCCCN3CCCCC3)cc2C1`, the results for the Ki in series [2] and in series [1] (read-out: Ki) were 0.0745 µM and 0.0238 µM, respectively. In the case of `c1cc(OCCCN2CCCCC2)c2c(c1)N(CC1CCCCC1)CCC2`, the Ki in series [1] (read-out: Ki) is 0.141 µM. For `CCN1CCc2ccc(OCCCN3CCCCC3)cc2C1`, the IC50 in series [3] was 1.1 mg/kg. This compound also came in with a bioavailability in series [4] of 69%. In addition, the Ki in series [2] stood at 0.00064 µM; in series [1] (read-out: Ki), 0.00034 µM. Consider `c1cc2c(cc1OCCCN1CCCCC1)N(CC1CCCCC1)CCC2`, for which the Ki in series [1] (read-out: Ki) stood at 0.187 µM. As to `O=C(c1cccs1)N1CCCc2ccc(OCCCN3CCCCC3)cc21`, the Ki in series [1] (read-out: Ki) was determined as 0.0226 µM. As to `c1cc2c(cc1OCCCN1CCCCC1)CCCN2CC1CCCCC1`, the Ki in series [1] (read-out: Ki) was found to be 0.031 µM.
